Where a SMILES comes first, the peptide text is derived from it.
Biological target: HLA B*1501 (Homo sapiens, UniProt P01889, A329T/A93T/A95T/C349S/D201E/D98Y/E187L/E204Q/E69M/E70A/K202T/N87E/Q94N/R155S/R180W/S121R/S35A/S48A/V306I/V36M/Y140S/Y91S)
Assay: biochemical
Format: binding

SMILES | IC50
CSCC[C@H](NC(=O)[C@H](C)NC(=O)[C@H](CCCCN)NC(=O)[C@H](Cc1ccccc1)NC(=O)[C@@H](NC(=O)[C@@H](N)CC(N)=O)C(C)C)C(=O)N[C@@H](CCC(=O)O)C(=O)N[C@H](C(=O)N[C@@H](Cc1ccccc1)C(=O)O)[C@@H](C)O [3102.0887] (H-NVFKAMETF-OH) | 23 nM
CC[C@H](C)[C@H](NC(=O)[C@H](CCC(=O)O)NC(=O)[C@@H](N)CO)C(=O)N[C@@H](CCCNC(=N)N)C(=O)N[C@@H](Cc1c[nH]c2ccccc12)C(=O)N[C@@H](CCC(=O)O)C(=O)N[C@@H](CCC(=O)O)C(=O)N[C@@H](CO)C(=O)N[C@@H](Cc1ccccc1)C(=O)O [3102.0890] (H-SEIRWEESF-OH) | 47 nM
CC[C@H](C)[C@H](N)C(=O)N[C@H](C(=O)N[C@H](C(=O)N1CCC[C@H]1C(=O)N[C@@H](Cc1ccccc1)C(=O)N[C@H](C(=O)N[C@@H](C)C(=O)N[C@@H](Cc1ccc(O)cc1)C(=O)N[C@@H](Cc1ccccc1)C(=O)O)[C@@H](C)CC)[C@@H](C)CC)[C@@H](C)CC [3102.0892] (H-IIIPFIAYF-OH) | 1.6 nM
CSCC[C@H](N)C(=O)N[C@H](C(=O)N[C@@H](Cc1ccc(O)cc1)C(=O)N[C@@H](CCCCN)C(=O)N[C@@H](CC(C)C)C(=O)N[C@H](C(=O)N[C@@H](CC(C)C)C(=O)N[C@@H](CC(C)C)C(=O)N[C@@H](Cc1ccccc1)C(=O)O)C(C)C)C(C)C [3102.0893] (H-MVYKLVLLF-OH) | 71 nM
CC[C@H](C)[C@H](NC(=O)[C@H](Cc1c[nH]cn1)NC(=O)[C@H](CC(=O)O)NC(=O)[C@H](Cc1c[nH]cn1)NC(=O)[C@H](CO)NC(=O)[C@@H](N)Cc1ccccc1)C(=O)NCC(=O)N[C@@H](Cc1c[nH]cn1)C(=O)NCC(=O)O [3102.0897] (H-FSHDHIGHG-OH) | 32 nM
CC[C@H](C)[C@H](NC(=O)[C@H](CCSC)NC(=O)[C@@H](N)CCSC)C(=O)N[C@@H](CC(=O)O)C(=O)N[C@@H](CC(=O)O)C(=O)N[C@@H](Cc1ccccc1)C(=O)NCC(=O)N[C@H](C(=O)N[C@@H](C)C(=O)O)[C@@H](C)O [3102.0898] (H-MMIDDFGTA-OH) | 7.6 nM
CC[C@H](C)[C@H](NC(=O)[C@@H](N)CC(C)C)C(=O)N[C@@H](CC(N)=O)C(=O)N[C@@H](CC(N)=O)C(=O)NCC(=O)N[C@@H](CCCCN)C(=O)N[C@@H](CS)C(=O)N[C@H](C(=O)N[C@@H](Cc1ccccc1)C(=O)O)[C@@H](C)O [3102.0899] (H-LINNGKCTF-OH) | 62 nM
CC[C@H](C)[C@H](N)C(=O)N[C@@H](CC(C)C)C(=O)N[C@@H](CCCCN)C(=O)N[C@@H](CCCCN)C(=O)N[C@@H](CC(C)C)C(=O)N[C@@H](CO)C(=O)N1CCC[C@H]1C(=O)N[C@@H](Cc1ccc(O)cc1)C(=O)N[C@@H](Cc1ccccc1)C(=O)O [3102.0903] (H-ILKKLSPYF-OH) | 1.2 nM
CC[C@H](C)[C@H](NC(=O)[C@H](C)NC(=O)[C@H](CC(N)=O)NC(=O)[C@H](Cc1ccccc1)NC(=O)[C@H](CC(C)C)NC(=O)[C@@H](N)Cc1ccc(O)cc1)C(=O)N[C@@H](CCC(=O)O)C(=O)N[C@H](C(=O)N[C@@H](CCSC)C(=O)O)[C@@H](C)O [3102.0905] (H-YLFNAIETM-OH) | 1.4 nM
CSCC[C@H](N)C(=O)N[C@@H](Cc1ccc(O)cc1)C(=O)N[C@@H](CCCCN)C(=O)N[C@@H](CCCCN)C(=O)N[C@@H](C)C(=O)N[C@@H](CCC(=O)O)C(=O)N[C@@H](C)C(=O)N[C@@H](CO)C(=O)N[C@@H](Cc1ccccc1)C(=O)O [3102.0906] (H-MYKKAEASF-OH) | 69 nM
CC[C@H](C)[C@H](NC(=O)[C@H](Cc1ccccc1)NC(=O)[C@@H](N)Cc1ccc(O)cc1)C(=O)N[C@@H](CCCCN)C(=O)N[C@@H](Cc1c[nH]cn1)C(=O)N[C@H](C(=O)N[C@@H](CC(C)C)C(=O)N[C@@H](C)C(=O)N[C@@H](Cc1ccccc1)C(=O)O)C(C)C [3102.0907] (H-YFIKHVLAF-OH) | 2.5 nM
CC[C@H](C)[C@H](NC(=O)[C@H](CCC(=O)O)NC(=O)[C@H](CS)NC(=O)[C@H](CCCNC(=N)N)NC(=O)[C@@H](NC(=O)[C@@H](N)CCCCN)[C@@H](C)CC)C(=O)N[C@H](C(=O)N[C@@H](CO)C(=O)N[C@@H](Cc1ccccc1)C(=O)O)[C@@H](C)O [3102.0909] (H-KIRCEITSF-OH) | 4.3 nM
CC[C@H](C)[C@H](NC(=O)[C@@H](N)CCC(=O)O)C(=O)N[C@@H](C)C(=O)N[C@@H](CCCCN)C(=O)N[C@@H](Cc1ccc(O)cc1)C(=O)NCC(=O)N[C@@H](Cc1c[nH]cn1)C(=O)N[C@@H](CO)C(=O)N[C@@H](Cc1ccccc1)C(=O)O [3102.0911] (H-EIAKYGHSF-OH) | 58 nM
CSCC[C@H](NC(=O)[C@@H](N)CCCNC(=N)N)C(=O)N[C@@H](Cc1ccccc1)C(=O)N[C@@H](Cc1c[nH]cn1)C(=O)N[C@@H](Cc1ccccc1)C(=O)N[C@@H](Cc1ccccc1)C(=O)N[C@@H](CCC(=O)O)C(=O)N[C@@H](Cc1c[nH]cn1)C(=O)N[C@@H](CCC(=O)O)C(=O)O [3102.0915] (H-RMFHFFEHE-OH) | 67 nM
CC[C@H](C)[C@H](NC(=O)[C@@H]1CCCN1C(=O)[C@H](CCC(=O)O)NC(=O)[C@H](CC(N)=O)NC(=O)[C@H](CO)NC(=O)[C@H](CC(=O)O)NC(=O)[C@H](Cc1ccccc1)NC(=O)[C@H](CC(C)C)NC(=O)[C@@H](N)CC(C)C)C(=O)O [3102.0916] (H-LLFDSNEPI-OH) | 16 nM
CC[C@H](C)[C@H](NC(=O)[C@H](C)NC(=O)[C@@H](N)Cc1ccccc1)C(=O)N[C@@H](CO)C(=O)N[C@@H](Cc1ccc(O)cc1)C(=O)N[C@@H](CS)C(=O)N[C@@H](CCCNC(=N)N)C(=O)N[C@@H](C)C(=O)N[C@@H](Cc1ccccc1)C(=O)O [3102.0920] (H-FAISYCRAF-OH) | 76 nM
CSCC[C@H](NC(=O)[C@H](CCCNC(=N)N)NC(=O)[C@H](CS)NC(=O)[C@@H]1CCCN1C(=O)[C@H](CO)NC(=O)[C@@H](N)CCSC)C(=O)N[C@@H](Cc1ccccc1)C(=O)N[C@@H](CO)C(=O)N[C@@H](Cc1ccccc1)C(=O)O [3102.0921] (H-MSPCRMFSF-OH) | 17 nM
CC(C)C[C@H](NC(=O)[C@H](CO)NC(=O)[C@H](CCCCN)NC(=O)[C@H](CC(C)C)NC(=O)[C@@H](N)CO)C(=O)N[C@@H](Cc1ccc(O)cc1)C(=O)N[C@@H](CCC(=O)O)C(=O)N[C@@H](C)C(=O)N[C@@H](Cc1ccccc1)C(=O)O [3102.0923] (H-SLKSLYEAF-OH) | 20 nM
CC(C)C[C@H](NC(=O)[C@H](CS)NC(=O)[C@H](CCCCN)NC(=O)[C@H](CCCCN)NC(=O)[C@H](Cc1ccccc1)NC(=O)[C@H](CO)NC(=O)[C@@H](N)Cc1ccccc1)C(=O)N[C@H](C(=O)N[C@@H](Cc1ccc(O)cc1)C(=O)O)C(C)C [3102.0925] (H-FSFKKCLVY-OH) | 4.7 nM
CC[C@H](C)[C@H](NC(=O)[C@H](CO)NC(=O)[C@@H](N)CCCNC(=N)N)C(=O)N[C@@H](CO)C(=O)N[C@@H](CCCNC(=N)N)C(=O)N[C@H](C(=O)N[C@@H](CCC(=O)O)C(=O)N[C@@H](CC(N)=O)C(=O)N[C@@H](Cc1ccccc1)C(=O)O)[C@@H](C)O [3102.0929] (H-RSISRTENF-OH) | 4.8 nM
CC[C@H](C)[C@H](N)C(=O)N[C@@H](CO)C(=O)N[C@@H](CCCCN)C(=O)N[C@@H](CC(N)=O)C(=O)N[C@@H](C)C(=O)N[C@@H](Cc1ccccc1)C(=O)N[C@@H](CO)C(=O)N[C@@H](CS)C(=O)N[C@@H](CCSC)C(=O)O [3102.0935] (H-ISKNAFSCM-OH) | 78 nM

Reference: paper PMC2248166, “Quantitative peptide binding motifs for 19 human and mouse MHC class I molecules derived using positional scanning combinatorial peptide libraries” (Immunome Research, 2008)
